Patent US12491170B2, “Stable treprostinil prodrugs” (United Therapeutics Corporation, priority 2020, dated 2025)
Where two headings read alike, the source gives them in different places.

What was measured:
[1] = Stability in cryopreserved hepatocytes, rat; settings: for AUC: rat
[2] = Stability in liver microsomes, rat
[3] = Stability in liver microsomes, dog
[4] = Stability in cryopreserved hepatocytes, dog; settings: for AUC: dog
[5] = Stability in cryopreserved hepatocytes, human; settings: for AUC: human
[6] = Stability in liver microsomes, human; settings: for AUC: human
[7] = dog
[8] = rat

Row | Structure (SMILES) | Trep Concentration (μM) 0 min [1] [µM] | Trep Concentration (μM) 15 min [1] [µM] | Trep Concentration (μM) 30 min [1] [µM] | Trep Concentration (μM) 60 min [1] [µM] | Trep Concentration (μM) 120 min [1] [µM] | AUC [1] [µmol·min/L] | Trep Concentration 0 min [2] [µM] | Trep Concentration 10 min [2] [µM] | Trep Concentration 20 min [2] [µM] | Trep Concentration 30 min [2] [µM] | Trep Concentration 60 min [2] [µM] | Trep Concentration 0 min [3] [µM] | Trep Concentration 10 min [3] [µM] | Trep Concentration 20 min [3] [µM] | Trep Concentration 30 min [3] [µM] | Trep Concentration 60 min [3] [µM] | Trep Concentration (μM) 0 min [4] [µM] | Trep Concentration (μM) 30 min [4] [µM] | Trep Concentration (μM) 60 min [4] [µM] | AUC [4] [µmol·min/L] | other results
1 | CCCCCC(CCC1C(O)CC2Cc3c(cccc3OCC(=O)O)CC21)OC(=O)c1cccc(O)c1 (stereo not shown) [LX] | 0 | 0.021 | 0.0343 | 0.0477 | 0.0634 | 5.14 | 0.0226 | 0.033 | 0.0396 | 0.0481 | 0.0609 | 0.0189 | 0.0283 | 0.0363 | 0.044 | 0.059 | 0 | 0.00492 | 0.00784 | 0.88 | Trep Concentration (μM) 15 min [4]: 0.00428 µM; Trep Concentration (μM) 0 min [5]: 0 µM; Trep Concentration (μM) 15 min [5]: 0.0671 µM; Trep Concentration (μM) 30 min [5]: 0.102 µM; Trep Concentration (μM) 60 min [5]: 0.123 µM; Trep Concentration (μM) 120 min [5]: 0.137 µM; AUC [5]: 12.95 µmol·min/L; Trep Concentration 0 min [6]: 0.105 µM; Trep Concentration 10 min [6]: 0.14 µM; Trep Concentration 20 min [6]: 0.137 µM; Trep Concentration 30 min [6]: 0.126 µM; Trep Concentration 60 min [6]: 0.0865 µM; AUC [6]: 7.11 µmol·min/L; AUC [7]: 2.51 µmol·min/L; AUC [8]: 2.72 µmol·min/L
2 | CCCCCC(CCC1C(O)CC2Cc3c(cccc3OCC(=O)O)CC21)OCCN1CCOCC1 (stereo not shown) [L] | 0 | 0.00347 | 0.00366 | 0.00352 | 0.0034 | 0.39 | 0.00345 | 0.00356 | 0.00419 | 0.00488 | 0.00552 | 0.00302 | 0.00333 | 0.00398 | 0.00409 | 0.00389 | 0.00247 | 0.0106 | 0.00355 | 0.63 | Trep Concentration (μM) 15 min [4]: 0.00312 µM; Trep Concentration (μM) 120 min [4]: 0.00568 µM; Trep Concentration (μM) 0 min [5]: 0.00177 µM; Trep Concentration (μM) 15 min [5]: 0.00195 µM; Trep Concentration (μM) 30 min [5]: 0.00202 µM; Trep Concentration (μM) 60 min [5]: 0.00194 µM; Trep Concentration (μM) 120 min [5]: 0.00197 µM; AUC [5]: 0.23 µmol·min/L; Trep Concentration 0 min [6]: 0.00327 µM; Trep Concentration 10 min [6]: 0.00286 µM; Trep Concentration 20 min [6]: 0.00309 µM; Trep Concentration 30 min [6]: 0.00264 µM; Trep Concentration 60 min [6]: 0.00244 µM; AUC [6]: 0.17 µmol·min/L; AUC [7]: 0.23 µmol·min/L; AUC [8]: 0.28 µmol·min/L
3 | CCCCCC(CCC1C(O)CC2Cc3c(cccc3OCC(=O)O)CC21)OC(C)=O (stereo not shown) [XLIII] | 0.00292 | 0.161 | 0.266 | 0.397 | 0.503 | 41.38 | 0.035 | 0.0741 | 0.111 | 0.145 | 0.206 | 0.964 | 0.917 | 0.899 | 0.932 | 0.873 | 0.0381 | 0.543 | 0.446 | 53.99 | Trep Concentration (μM) 120 min [4]: 0.4 µM; Trep Concentration (μM) 0 min [5]: 0.00744 µM; Trep Concentration (μM) 15 min [5]: 0.573 µM; Trep Concentration (μM) 30 min [5]: 0.623 µM; Trep Concentration (μM) 60 min [5]: 0.54 µM; Trep Concentration (μM) 120 min [5]: 0.507 µM; AUC [5]: 62.18 µmol·min/L; Trep Concentration 0 min [6]: 0.883 µM; Trep Concentration 10 min [6]: 0.681 µM; Trep Concentration 20 min [6]: 0.602 µM; Trep Concentration 30 min [6]: 0.513 µM; Trep Concentration 60 min [6]: 0.341 µM; AUC [6]: 32.62 µmol·min/L; AUC [7]: 54.72 µmol·min/L; AUC [8]: 8.02 µmol·min/L
4 | CCCCCC(CCC1C(O)CC2Cc3c(cccc3OCC(=O)O)CC21)OC(=O)c1ccc(C)cc1 (stereo not shown) [XLVIII] | 0 | 0.1 | 0.141 | 0.221 | 0.318 | 24.16 | 0.0583 | 0.0944 | 0.0864 | 0.0909 | 0.123 | 0.119 | 0.219 | 0.322 | 0.366 | 0.475 | 0 | 0.115 | 0.177 | 18.23 | Trep Concentration (μM) 15 min [4]: 0.0841 µM; Trep Concentration (μM) 120 min [4]: 0.214 µM; Trep Concentration (μM) 0 min [5]: 0 µM; Trep Concentration (μM) 15 min [5]: 0.342 µM; Trep Concentration (μM) 30 min [5]: 0.304 µM; Trep Concentration (μM) 60 min [5]: 0.345 µM; Trep Concentration (μM) 120 min [5]: 0.347 µM; AUC [5]: 37.91 µmol·min/L; Trep Concentration 0 min [6]: 0.202 µM; Trep Concentration 10 min [6]: 0.302 µM; Trep Concentration 20 min [6]: 0.322 µM; Trep Concentration 30 min [6]: 0.337 µM; Trep Concentration 60 min [6]: 0.352 µM; AUC [6]: 19.27 µmol·min/L; AUC [7]: 20.45 µmol·min/L; AUC [8]: 5.76 µmol·min/L
5 | CCCCC[C@H]1CC[C@@H]2[C@H]3Cc4cccc(OCC(=O)O)c4C[C@H]3C[C@H]2OC(=O)O1 [XXIV] | 0.365 | 0.581 | 0.531 | 0.482 | 0.431 | 58.02 | 0.779 | 0.791 | 0.79 | 0.802 | 0.681 | 0.892 | 0.975 | 0.948 | 0.945 | 0.86 | 0.0779 | 0.438 | 0.349 | 41.94 | Trep Concentration (μM) 15 min [4]: 0.461 µM; Trep Concentration (μM) 120 min [4]: 0.296 µM; Trep Concentration (μM) 0 min [5]: 0.041 µM; Trep Concentration (μM) 15 min [5]: 0.228 µM; Trep Concentration (μM) 30 min [5]: 0.264 µM; Trep Concentration (μM) 60 min [5]: 0.312 µM; Trep Concentration (μM) 120 min [5]: 0.328 µM; AUC [5]: 33.55 µmol·min/L; Trep Concentration 0 min [6]: 0.326 µM; Trep Concentration 10 min [6]: 0.342 µM; Trep Concentration 20 min [6]: 0.341 µM; Trep Concentration 30 min [6]: 0.326 µM; Trep Concentration 60 min [6]: 0.23 µM; AUC [6]: 18.43 µmol·min/L; AUC [7]: 55.49 µmol·min/L; AUC [8]: 45.96 µmol·min/L
